In patent US20240294543A1, “CYCLOHEPTA-THIENO-DIAZEPINE DERIVATIVES AS GABA A GAMMA1 PAM” (Hoffmann-La Roche Inc., priority 2021, published 2024):
Read-outs that look alike come from different tables or passages of the source.

Experiments:
[1] = target: human GABAA α5β2γ1 receptor (Homo sapiens (Human), UniProt P31644+Q8N1C3); assay: Radioligand binding assay, competition for [3H]RO7239181, γ1-containing GABAA subtypes
Experimental: The affinity of compounds at GABAA γ1 subunit-containing receptors was measured by competition for [^3H]RO7239181 (67.3 Ci/mmol; Roche) binding to membranes from HEK293F cells (ThermoFisher R79007) expressing human (transiently transfected) receptors of composition α5β2γ1, α2β2γ1, α1β2γ1. For better protein expression of the α2 subunit-containing receptors, the 28 amino acid long signal peptide (Met1 to Ala28) of the human GABAA α2 subunit was substituted by the 31 amino acid long signal peptide (Met1 to Ser31) of human GABAA α5 subunit.
(§1) Harvested pellets from HEK293F cells expressing the different GABAA receptor subtypes were resuspended in Mannitol Buffer pH 7.2-7.4 (Mannitol 0.29 M, Triethylamine 10 mM, Acetic acid 10 mM, EDTA 1 mM plus protease inhibitors (20 tablets Complete, Roche Diagnostics Cat. No. 05 056 489 001 per liter)), washed two times and then resuspended at 1:10 to 1:15 dilution in the same buffer. Cell disruption was performed by stirring the suspension in a Parr vessel #4637 at 435 psi for 15 minutes, and then the suspensions were centrifuged at 1000×g for 15 minutes at 4° C. (Beckman Avanti J-HC; rotor JS-4.2). The supernatant (S1) was transferred in a 21 Schott flask and the pellet (P1) was resuspended with Mannitol Buffer up to 175 ml. The resuspended pellet was transferred into a 250 ml Corning centrifugal beaker and centrifuged at 1500×g for 10 minutes at 4° C. (Beckman Avanti J-HC; rotor JS-4.2). The supernatant (S1) was then transferred in the 21 Schott flask and the pellet was discarded. The supernatants (S1) were centrifuged in 500 ml Beckman polypropylene centrifugal beaker at 15'000×g for 30 minutes at 4° C. (Beckman Avanti J-20 XP; rotor JLA-10.500). The pellet (P2) was resuspended with Mannitol Buffer 1:1 and frozen at −80° C. The supernatant (S2) was centrifuged in 100 ml Beckman polypropylene centrifugal tubes at 48000×g for 50 minutes at 4° C. (Beckman Avanti J-20 XP; rotor JA-18). The supernatant (S3) was discarded and the pellet (P3) was resuspended with 1:1 Mannitol Buffer. The P2 and P3 protein concentration was determined with the BIORAD Standard assay method with bovine serum albumin as standard and measured on the NANO-Drop 1000. The membrane suspension was aliquots (500 μl per tube) and stored at −80° C. until required.
(§2) Membrane homogenates were resuspended and polytronised (Polytron PT1200E Kinematica AG) in Potassium Phosphate 10 mM, KCl 100 mM binding buffer at pH 7.4 to a final assay concentration determined with a previous experiment.
Radioligand binding assays were carried out in a volume of 200 μL (96-well plates) which contained 100 μL of cell membranes, [^3H]RO7239181 at a concentration of 1.5 nM (α5β2γ1) or 20-30 nM (α1β2γ1, α2β2γ1) and the test compound in the range of [0.3-10000]×10^−9 M. Nonspecific binding was defined by 10×10^−6 (α5β2γ1) and 30×10^−6 M RO7239181 and typically represented less than 5% (α5β2γ1) and less than 20% (α1β2γ1, α2β2γ1) of the total binding. Assays were incubated to equilibrium for 1 hour at 4° C. and then, membranes were filtered onto unifilter (96-well white microplate with bonded GF/C filters preincubated 20-50 minutes in 0.3% Polyethylenimine) with a Filtermate 196 harvester (Packard BioScience) and washed 4 times with cold Potassium Phosphate 10 mM pH 7.4, KCl 100 mM binding buffer. After anhydrousing, filter-retained radioactivity was detected by liquid scintillation counting. Ki values were calculated using Excel-Fit (Microsoft) and are the means of two determinations.

[2] = target: human GABAA α2β2γ1 receptor (Homo sapiens (Human), UniProt P47869+Q8N1C3); assay: as above
Experimental: The affinity of compounds at GABAA γ1 subunit-containing receptors was measured by competition for [^3H]RO7239181 (67.3 Ci/mmol; Roche) binding to membranes from HEK293F cells (ThermoFisher R79007) expressing human (transiently transfected) receptors of composition α5β2γ1, α2β2γ1, α1β2γ1.
as §1, §2
Assays were incubated to equilibrium for 1 hour at 4° C. and then, membranes were filtered onto unifilter (96-well white microplate with bonded GF/C filters preincubated 20-50 minutes in 0.3% Polyethylenimine) with a Filtermate 196 harvester (Packard BioScience) and washed 4 times with cold Potassium Phosphate 10 mM pH 7.4, KCl 100 mM binding buffer. After anhydrousing, filter-retained radioactivity was detected by liquid scintillation counting. Ki values were calculated using Excel-Fit (Microsoft) and are the means of two determinations.

[3] = target: human GABAA α1β3γ2 receptor (Homo sapiens (Human), UniProt P14867+P18507); assay: Radioligand binding assay, competition for [3H]Flumazenil, γ2-containing GABAA subtypes; details: for γ2/γ1 Selectivity Ratio: Ki α1β3γ2 (nM)/Ki α2β2γ1 (nM); for LogSel: Log[Ki α1β3γ2 (nM)/Ki α2β2γ1 (nM)]
Experimental: The affinity of compounds at GABAA γ2 subunit-containing receptors was measured by competition for [^3H]Flumazenil (81.1 Ci/mmol; Roche) binding to HEK293F cells expressing human (transiently transfected) receptors of composition α1β3γ2.
Harvested pellets from HEK293F cells expressing the different GABAA γ2 receptor subtypes were resuspended in Mannitol Buffer pH 7,2-7,4 and processed as described above for the cells expressing the GABAA γ1 subunit-containing receptors.
Assays were incubated to equilibrium for 1 hour at 4° C. and harvested onto GF/C uni-filters (Packard) by filtration using a Packard harvester and washing with ice-cold wash buffer (50 mM Tris; pH 7.5). After anhydrousing, filter-retained radioactivity was detected by liquid scintillation counting. Ki values were calculated using Excel-Fit (Microsoft) and are the means of two determinations.

h-GABA-A α2β2γ1 = h-GABA-A α2β2γ1 (Homo sapiens (Human), UniProt P47869+Q8N1C3); assay: Two-electrode voltage clamp electrophysiology in Xenopus oocytes expressing GABAA receptors; format: cell-based; details: α2β2γ1 GABAA receptor subtype expressing oocytes, reference PAMs
Experimental: Xenopus Oocytes Preparation Xenopus laevis oocytes at maturation stages V-VI were used for the expression of cloned mRNA encoding GABAA receptor subunits. Oocytes ready for RNA micro-injection were bought from Ecocyte, Castrop-Rauxel, Germany and stored in modified Barth's medium (composition in mM: NaCl 88, KCl 1, NaHCO3 2.4, HEPES 10, MgSO4 0.82, CaNO3 0.33, CaCl2 0.33, pH=7.5) at 20° C. until the experiment.
Oocytes were plated in 96-well plates for microinjection using the Roboinject automated instrument (MultiChannelSystems, Reutlingen, Germany). Approximately 50 nL of an aqueous solution containing the RNA transcripts for the subunits of the desired GABAA receptor subtype was injected into each oocyte. […] Oocytes were kept in modified Barth's medium (composition in mM: NaCl 88, KCl 1, NaHCO3 […], HEPES 10, MgSO4 0.82, CaNO3 0.33, CaCl2 0.33, pH=7.5) at 20° C. until the experiment.
Electrophysiological experiments were performed using the Roboocyte instrument (MultiChannelSystems, Reutlingen, Germany) on days 3 to 5 after the micro-injection of mRNA. During the experiment the oocytes were constantly superfused by a solution containing (in mM) NaCl 90, KCl 1, HEPES 5, MgCl2 1, CaCl2 1 (pH 7.4). Oocytes were impaled by two glass microelectrodes (resistance: 0.5-0.8 MQ) which were filled with a solution containing KCl 1M+K-acetate 1.5 M and voltage-clamped to −80 mV. The recordings were performed at room temperature using the Roboocyte two-electrode voltage clamp system (Multichannelsystem). After an initial equilibration period of 1.5 min GABA was added for 1.5 min at a concentration evoking approximately 20% of a maximal current response (EC20). After another rest interval of 2.5 min GABA was again added evoking a response of similar amplitude and shape. […] Current traces were recorded at a digitization rate of 10 Hz during and shortly before and after the GABA application.
Each compound and concentration was tested on at least 3 oocytes. Different oocytes were used for different compound concentrations.
For the analysis, the digitized current traces of the first and second GABA response were superimposed and, if necessary, rescaled to equal maximal amplitudes. The ratio between the two responses during the time interval of test compound application was calculated point by point. The extremum of the resulting “ratio trace” was taken as the efficacy (“Fold increase”) of the compound expressed as “% modulation of GABA EC20” (100*(Fold increase−1)).

[4] = Ki h-GABAA α2β2γ1, membranes of HEK293F cells, [3H]RO7239181 20-30 nM, Table 1
[5] = Ki h-GABAA α2β2γ1, membranes of HEK293F cells, [3H]RO7239181 20-30 nM, Table 2

Structure (SMILES)	Ki [1] [nM]	Ki [2, 4] [nM]	Ki [2, 5] [nM]	Ki [3] [nM]	γ2/γ1 Selectivity Ratio ([3]; Table 1)	LogSel ([3]; Table 1)	LogSel ([3]; Table 3)	also measured
Cc1nnc2n1-c1sc3c(c1C(c1c(F)cccc1F)=N[C@H]2C)CCCCC3F (single isomer, unassigned) [Example 10]	2.72	18.2	18.2	1160	63.6	1.80	–	–
Cc1nnc2n1-c1sc3c(c1C(c1c(F)cccc1F)=N[C@H]2C)COCC[C@@H]3F (single isomer, unassigned) [Example 55]	9	47.8	47.8	2690	56.2	1.75	–	–
Cc1nnc2n1-c1ccc(Cl)cc1C(c1ccccc1)=NC2 [Alprazolam, reference compound]	–	–	–	–	–	–	−2.3	–
Clc1ccc2c(c1)C(c1ccccc1)=NCc1nncn1-2 [Estazolam, reference compound]	–	–	–	–	–	–	−2.0	γ2/γ1 Selectivity Ratio ([3]; Table 3): 0.0089
C[C@@H]1N=C(c2c(F)cccc2F)c2c(sc3c2CCCCC3)-n2c1n[nH]c2=O [Example 6, (7S)-9-(2,6-difluorophenyl)-7-methyl-18-thia-2,4,5,8-tetrazatetracyclo[8.8.0.02,6.011,17]octadeca-1(10),5,8,11(17)-tetraen-3-one]	3.69	37.3	37.3	2440	65.3	1.82	–	–
[2H]C1([2H])OCc2c(sc3c2C(c2c(F)cccc2F)=N[C@@H](C)c2nc(C(=O)N4CC(OCC)C4)nn2-3)OC1([2H])[2H] [Example 32, (3-Ethoxyazetidin-1-yl)-[(7S)-14,14,15,15-tetradeuterio-9-(2,6-difluorophenyl)-7-methyl-13,16-dioxa-18-thia-2,3,5,8-tetrazatetracyclo[8.8.0.02,6.011,17]octadeca-1(10),3,5,8,11(17)-pentaen-4-yl]methanone]	1.88	7.7	7.7	–	747.9	2.87	–	Ki ([3]; HEK293F cells, [3H]Flumazenil 1 nM, Table 1, read-out: Ki h-GABAA α1β3γ2): 5780 nM
Cc1nnc2n1-c1sc3c(c1C(c1c(F)cccc1F)=N[C@H]2C)COCC[C@H]3F [Example 54, (7S,16R)-9-(2,6-difluorophenyl)-16-fluoro-3,7-dimethyl-13-oxa-18-thia-2,4,5,8-tetrazatetracyclo[8.8.0.02,6.011,17]octadeca-1(10),3,5,8,11(17)-pentaene]	9.1	35.8	35.8	5080	141.9	–	–	–
Cc1cn2c(n1)[C@H](C)N=C(c1c(F)cccc1F)c1c-2sc2c1COCCC2 [Example 58, (7S)-9-(2,6-difluorophenyl)-4,7-dimethyl-13-oxa-18-thia-2,5,8-triazatetracyclo[8.8.0.02,6.011,17]octadeca-1(10),3,5,8,11(17)-pentaene]	2.59	25	25	1400	56.0	1.75	–	–
CN1C(=O)CN=C(c2ccccc2F)c2cc([N+](=O)[O-])ccc21 [Flunitrazepam, reference compound]	–	–	–	–	–	–	–	potentiation of the GABA-induced current (h-GABA-A α2β2γ1): ~60%
Cc1ncc2n1-c1ccc(Cl)cc1C(c1ccccc1F)=NC2 [Midazolam, reference compound]	–	–	–	–	–	–	−2.2	potentiation of the GABA-induced current (h-GABA-A α2β2γ1): ~60%
Cc1nnc2n1-c1sc3c(c1C(c1c(F)cccc1F)=N[C@H]2C)CCCC3 [RE-B, (7S)-9-(2,6-difluorophenyl)-3,7-dimethyl-17-thia-2,4,5,8-tetrazatetracyclo[8.7.0.02,6.011,16]heptadeca-1(10),3,5,8,11(16)-pentaene, reference compound]	–	–	–	21.6	–	–	–	Ki ([2]; Ki h-GABAA α2β2γ1, Table 3, reference compounds and examples): 57.7 nM; γ2/γ1 Selectivity Ratio ([3]; Table 3): 2.68
Cc1nnc2n1-c1ccc(Cl)cc1C(c1ccccc1Cl)=NC2 [Triazolam, reference compound]	–	–	–	–	–	–	−1.5	potentiation of the GABA-induced current (h-GABA-A α2β2γ1): ~60%
